Peptide text beside a SMILES is read from it.
Columns and labels:
KDM7B PHD = molecular target: T1, KDM7B PHD (Homo sapiens, UniProt Q9UPP1); assay: BLI binding; settings: read-out: BLI KD, KDM7B PHD-finger
T1 construct: KDM7B 1-66; made in house
T1 sequence (Q9UPP1 1-66 isoform Q9UPP1-2): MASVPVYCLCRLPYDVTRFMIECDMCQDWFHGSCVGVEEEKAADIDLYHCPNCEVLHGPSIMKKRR
Text: Figure S2. BLI for KDM7 proteins with cyclic peptides.
BLI traces for b inding to KDM7 protein domains immobilised by C-terminal His -tag on Ni -NTA
biosensors, against cyclic peptides. Response trace for each peptide concentration is represented by
a different colour, with the fitted curves overlaid in black.
concentration plotted, with 2-fold dilutions thereafter. Dual domain = PHD+JmjC. […]
against KDM7 and other protein domains. t1/2 = half life (0.693 / Koff)
(1 picture or pasted object on this page, not shown here)

KDM7B PHD-finger = molecular target: T2, KDM7B PHD-finger (Homo sapiens, UniProt Q9UPP1); assay: Protein NMR affinity assessment; assay type: binding; settings: read-out: NMR pKD, KDM7B PHD-finger (converted)
T2 construct: KDM7B 1-66; His-tag (C); made in house
T2 sequence (Q9UPP1 1-66 isoform Q9UPP1-2): T1 sequence (Q9UPP1 1-66 isoform Q9UPP1-2)

full-length KDM7B = assay: Pull-down from transfected HEK293T nuclear lysates; assay type: binding; settings: 100-fold excess competitor
Procedure: HEK293T cells were transiently transfected with either a full-length wild-type KDM7B, or an aromatic cage inactivating mutant KDM7B (Y14A, W29A).[20]
Capture was performed with 1 μM probe incubated in pre-cleared lysate, recovered with streptavidin-conjugated magnetic beads, then washed and eluted by heating in denaturing solution. 100-fold excess OC9 or OC9 V10A were used as competitors. […] The upper left quadrant indicates >5-fold difference in recovered protein (based on T-test difference of mean log 2 (LFQ) values) and p-value threshold <0.05.

## CC(C)C[C@@H]1NC(=O)[C@H](Cc2ccc(O)cc2)NC(=O)[C@H](Cc2ccc(O)cc2)NC(=O)CSC[C@@H](C(N)=O)NC(=O)[C@H]([C@@H](C)O)NC(=O)[C@H](CCCNC(=N)N)NC(=O)[C@H](Cc2ccccc2)NC(=O)[C@@H](C(C)C)NC(=O)[C@H](CO)NC(=O)[C@@H]2CCCN2C(=O)[C@H](Cc2ccc(O)cc2)NC(=O)[C@@H]2CCCN2C(=O)[C@H](Cc2c[nH]cn2)NC(=O)[C@H]([C@@H](C)O)NC1=O [OC9 V10DV] (HELM PEPTIDE1{[O=C(C[*:3])[*:2]].Y.Y.L.T.H.P.Y.P.S.[dV].F.R.T.C.[am]}$PEPTIDE1,PEPTIDE1,1:R3-15:R3$$$V2.0; C-terminus assumed)
KDM7B PHD
  Kd: > 10 µM
KDM7B PHD-finger
  Kd: > 501 µM

## CC(C)C[C@@H]1NC(=O)[C@H](Cc2ccc(O)cc2)NC(=O)[C@H](Cc2ccc(O)cc2)NC(=O)CSC[C@@H](C(N)=O)NC(=O)[C@H]([C@@H](C)O)NC(=O)[C@H](CCCNC(=N)N)NC(=O)[C@H](Cc2ccccc2)NC(=O)[C@H](C)NC(=O)[C@H](CO)NC(=O)[C@@H]2CCCN2C(=O)[C@H](Cc2ccc(O)cc2)NC(=O)[C@@H]2CCCN2C(=O)[C@H](Cc2c[nH]cn2)NC(=O)[C@H]([C@@H](C)O)NC1=O [V10A] (HELM PEPTIDE1{[O=C(C[*:3])[*:2]].Y.Y.L.T.H.P.Y.P.S.A.F.R.T.C.[am]}$PEPTIDE1,PEPTIDE1,1:R3-15:R3$$$V2.0; C-terminus assumed)
full-length KDM7B
  competition of OC9-Bt pull-down of KDM7B: did not reduce recovery so substantially

Reference: PMC10321576, “Cyclic peptides target the aromatic cage of a PHD-finger reader domain to modulate epigenetic protein function” (Chemical Science, 2023)
